Measured values from patent US10287301B2 (Achillion Pharmaceuticals, Inc., priority 2015, dated 2019).
Structures can show the parent of a compound that is named as a salt.

Molecular target: Human Factor D (Homo sapiens (Human), UniProt P00746)
Experiment: Human Factor D Assay
Assay type: biochemical
Conditions: not given
Summary of the method: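 First, compound at various concentrations is mixed with 80 nM (final) human serum Factor D in 50 mM Tris, 1M NaCl, pH 7.5 for 5 min at room temperature.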

Sequence of Human Factor D (P00746 26-253): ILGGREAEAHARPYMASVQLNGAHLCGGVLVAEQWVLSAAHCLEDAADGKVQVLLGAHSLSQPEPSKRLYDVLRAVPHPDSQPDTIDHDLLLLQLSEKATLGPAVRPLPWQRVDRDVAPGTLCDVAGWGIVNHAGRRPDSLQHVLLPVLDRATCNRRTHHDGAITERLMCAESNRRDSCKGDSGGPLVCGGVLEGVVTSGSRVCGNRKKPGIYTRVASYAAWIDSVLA

**Q.** For `NC(=O)c1nn(CC(=O)N2C[C@H](F)C[C@H]2C(=O)NCc2cccnc2)c2ccc(-c3ccnnc3)cc12` [Compound 39, 1-(2-((2S,4R)-4-fluoro-2-(pyridin-3-ylmethylcarbamoyl)pyrrolidin-1-yl)-2-oxoethyl)-5-(pyridazin-4-yl)-1H-indazole-3-carboxamide], which IC50 is on record?
**A.** Its IC50 is 1 to 10 µM.

**Q.** `CC(=O)c1cn(CC(=O)N2C[C@H](F)C[C@H]2C(=O)NC2CCCN(c3cnn(C)c3)C2)c2ccc(-c3ccnnc3)cc12` (stereo partly drawn) [Compound 140, (2S,4R)-1-(2-(3-acetyl-5-(pyridazin-4-yl)-1H-indol-1-yl)acetyl)-4-fluoro-N-(1-(1-methyl-1H-pyrazol-4-yl)piperidin-3-yl)pyrrolidine-2-carboxamide] was tested. Which IC50 did it give?
**A.** The IC50 was 1 to 10 µM.

Same assay, conditions: Human Factor D 80 nM, substrate Z-L-Lys-SBzl; read-out: IC50

**Q.** For `NC(=O)c1nn(CC(=O)N2C[C@H](F)C[C@H]2C(=O)Nc2cccc(Br)n2)c2ccc(-c3ccc(N4CCOCC4)cc3)cc12` [Compound 3, 1-(2-((2S,4R)-2-((6-Bromopyridin-2-yl)carbamoyl)-4-fluoropyrrolidin-1-yl)-2-oxoethyl)-5-(4-morphlinophenyl)-1H-indazole-3-carboxamide], which IC50 is on record?
**A.** Its IC50 is under 1 µM.

**Q.** Which IC50 does the source give for `NC(=O)c1nn(CC(=O)N2C[C@H](F)C[C@H]2C(=O)Nc2cc(=O)[nH]n2C2CCCCC2)c2ccc(-c3ccnnc3)cc12` [Compound 168, 1-(2-((2S,4R)-2-(2-cyclohexyl-5-oxo-2,5-dihydro-1H-pyrazol-3-ylcarbamoyl)-4-fluoropyrrolidin-1-yl)-2-oxoethyl)-5-(pyridazin-4-yl)-1H-indazole-3-carboxamide] here?
**A.** The IC50 was over 10 µM.

**Q.** With `CC(=O)c1cn(CC(=O)N2C[C@H](F)C[C@H]2C(=O)Nc2ccc(O)cn2)c2ccc(-c3ccnnc3)cc12` [Compound 175, (2S,4R)-1-(2-(3-acetyl-5-(pyridazin-4-yl)-1H-indol-1-yl)acetyl)-4-fluoro-N-(5-hydroxypyridin-2-yl)pyrrolidine-2-carboxamide] as the compound, how does the IC50 read?
**A.** The IC50 was over 10 µM.

**Q.** `CC(=O)c1cn(CC(=O)N2C[C@H](F)C[C@H]2C(=O)Nc2cccc(Cl)c2-n2cncn2)c2ccc(-c3ccnnc3)cc12` [Compound 95, (2S,4R)-1-(2-(3-acetyl-5-(pyridazin-4-yl)-1H-indol-1-yl)acetyl)-N-(3-chloro-2-(1H-1,2,4-triazol-1-yl)phenyl)-4-fluoropyrrolidine-2-carboxamide] was tested. Which IC50 did it give?
**A.** The IC50 was over 10 µM.

**Q.** `NC(=O)c1nn(CC(=O)N2C[C@H](F)C[C@H]2C(=O)NCc2cccc(Cl)c2F)c2cnc(-c3cncnc3)cc12` [Compound 18, 1-(2-((2S,4R)-2-(3-chloro-2-fluorobenzyl-carbamoyl)-4-fluoropyrrolidin-1-yl)-2-oxoethyl)-5-(pyrimidin-5-yl)-1H-pyrazolo[3,4-c]pyridine-3-carboxamide] was tested. Which IC50 did it give?
**A.** The IC50 was under 1 µM.

**Q.** How did the IC50 turn out when `CC(=O)c1cn(CC(=O)N2C[C@H](F)C[C@H]2C(=O)Nc2ccc(CNC(=O)OCC3c4ccccc4-c4ccccc43)cc2)c2ccc(-c3ccnnc3)cc12` [Compound 61] was run?
**A.** Its IC50 is over 10 µM.

**Q.** For `NC(=O)c1nn(CC(=O)N2C[C@H](F)C[C@H]2C(=O)Nc2cccc(O)n2)c2ccc(-c3ccnnc3)cc12` [Compound 174, 1-(2-((2S,4R)-4-fluoro-2-(6-hydroxypyridin-2-ylcarbamoyl)pyrrolidin-1-yl)-2-oxoethyl)-5-(pyridazin-4-yl)-1H-indazole-3-carboxamide], which IC50 is on record?
**A.** Its IC50 is over 10 µM.

Same assay, conditions: Human Factor D assay of Example 8; Table 2; read-out: IC50

**Q.** `CC(=O)c1nn(CC(=O)N2C[C@H](F)C[C@H]2C(=O)Nc2cccc(Br)n2)c2ccc(-c3cnn4ccnc4c3)cc12` [Compound 304, (2S,4R)-1-(2-(3-acetyl-5-(imidazo[1,2-b]pyridazin-7-yl)-1H-indazol-1-yl)acetyl)-N-(6-bromopyridin-2-yl)-4-fluoropyrrolidine-2-carboxamide] was tested. Which IC50 did it give?
**A.** The IC50 was under 1 µM.

**Q.** `CC(=O)c1nn(CC(=O)N2CC(=O)C[C@H]2C(=O)Nc2cccc(Br)n2)c2ccc(-c3cnc(C)nc3)cc12` [Compound 250, (S)-1-(2-(3-Acetyl-5-(2-methylpyrimidin-5-yl)-1H-indazol-1-yl)acetyl)-N-(6-bromopyridin-2-yl)-4-oxopyrrolidine-2-carboxamide] was tested. Which IC50 did it give?
**A.** Its IC50 is under 1 µM.

**Q.** For `Cc1cc2ncc(-c3cc4c(C(N)=O)nn(CC(=O)N5C[C@H](F)C[C@H]5C(=O)Nc5cccc(OC(F)(F)F)c5F)c4cn3)cn2n1` [Compound 283, 1-(2-((2S,4R)-4-fluoro-2-(2-fluoro-3-(trifluoromethoxy)phenylcarbamoyl)pyrrolidin-1-yl)-2-oxoethyl)-5-(2-methylpyrazolo[1,5-a]pyrimidin-6-yl)-1H-pyrazolo[3,4-c]pyridine-3-carboxamide], which IC50 is on record?
**A.** The IC50 was under 1 µM.

**Q.** How did the IC50 turn out when `CC(=O)c1cn(CC(=O)N2C[C@H](F)C[C@H]2C(=O)Nc2cccc(Cl)n2)c2ccc(-c3cnc4ccnn4c3)cc12` [Compound 223, (2S,4R)-1-(2-(3-acetyl-5-(pyrazolo[1,5-a]pyrimidin-6-yl)-1H-indol-1-yl)acetyl)-N-(6-chloropyridin-2-yl)-4-fluoropyrrolidine-2-carboxamide] was run?
**A.** Its IC50 is under 1 µM.

**Q.** Which IC50 does the source give for `CC(=O)c1nn(CC(=O)N2C[C@H](F)C[C@H]2C(=O)Nc2cncc(Br)n2)c2ccc(-c3cnc(C)nc3)cc12` [Compound 317, (2S,4R)-1-(2-(3-acetyl-5-(2-methylpyrimidin-5-yl)-1H-indazol-1-yl)acetyl)-N-(6-bromopyrazin-2-yl)-4-fluoropyrrolidine-2-carboxamide] here?
**A.** Its IC50 is under 1 µM.

Same assay, conditions: Human Factor D, Table 3; read-out: IC50

**Q.** How did the IC50 turn out when `Cc1cccc(NC(=O)[C@@H]2[C@H]3CC[C@H](C3)N2C(=O)Cn2cc(C(N)=O)c3cc(-c4cnc5ncccn45)ccc32)n1` [Compound 695, 5-(Imidazo[1,2-a]pyrimidin-3-yl)-1-(2-((1R,3S,4S)-3-(6-methylpyridin-2-ylcarbamoyl)-2-azabicyclo[2.2.1]heptan-2-yl)-2-oxoethyl)-1H-indole-3-carboxamide] was run?
**A.** Its IC50 is over 10 µM.

**Q.** `CC(=O)c1nn(CC(=O)N2C[C@@](F)(CN(C)C)C[C@H]2C(=O)Nc2nc(Br)ccc2C)c2ccc(-c3cnc(C)nc3)cc12` [Compound 645, (2S,4S)-1-(2-(3-Acetyl-5-(2-methylpyrimidin-5-yl)-1H-indazol-1-yl)acetyl)-N-(6-bromo-3-methylpyridin-2-yl)-4-((dimethylamino)methyl)-4-fluoropyrrolidine-2-carboxamide] was tested. Which IC50 did it give?
**A.** Its IC50 is under 1 µM.

**Q.** `CC(=O)c1nn(CC(=O)N2CCOC[C@H]2C(=O)Nc2cccc(Br)n2)c2ccc(-c3cnc(C)nc3)cc12` [Compound 749, (S)-4-(2-(3-acetyl-5-(2-methylpyrimidin-5-yl)-1H-indazol-1-yl)acetyl)-N-(6-bromopyridin-2-yl)morpholine-3-carboxamide] was tested. Which IC50 did it give?
**A.** The IC50 was under 1 µM.

**Q.** How did the IC50 turn out when `CC(=O)c1nn(CC(=O)N2[C@@H](C)CC[C@H]2C(=O)Nc2nc(Br)ccc2C)c2ccc(-c3cnc(C)nc3)cc12` [Compound 646, (2S,5S)-1-(2-(3-Acetyl-5-(2-methylpyrimidin-5-yl)-1H-indazol-1-yl)acetyl)-N-(6-bromo-3-methylpyridin-2-yl)-5-methylpyrrolidine-2-carboxamide] was run?
**A.** Its IC50 is under 1 µM.

**Q.** Which IC50 does the source give for `CC(=O)c1cn(CC(=O)N2C[C@H](F)C[C@H]2C(=O)NCc2ccccc2)c2ccc(-c3cnc4cc(C)nn4c3)cc12` [Compound 685, (2S,4R)-1-(2-(3-Acetyl-5-(2-methylpyrazolo[1,5-a]pyrimidin-6-yl)-1H-indol-1-yl)acetyl)-N-benzyl-4-fluoropyrrolidine-2-carboxamide] here?
**A.** The IC50 was under 1 µM.

**Q.** Which IC50 does the source give for `CC(=O)c1nn(CC(=O)N2C[C@H](F)C[C@H]2C(=O)Nc2cccc(Br)n2)c2ccc(-c3cnc(Oc4ccncc4)nc3)cc12` [Compound 554, (2S,4R)-1-(2-(3-aAetyl-5-(2-(pyridin-4-yloxy)pyrimidin-5-yl)-1H-indazol-1-yl)acetyl)-N-(6-bromopyridin-2-yl)-4-fluoropyrrolidine-2-carboxamide] here?
**A.** The IC50 was under 1 µM.

**Q.** How did the IC50 turn out when `CC(=O)c1nn(CC(=O)N2CC[C@H]2C(=O)Nc2cccc(C)n2)c2ccc(-c3cccnc3)cc12` [Compound 548, (S)-1-(2-(3-Acetyl-5-(pyridin-3-yl)-1H-indazol-1-yl)acetyl)-N-(6-methylpyridin-2-yl)azetidine-2-carboxamide] was run?
**A.** The IC50 was over 10 µM.

Same assay, conditions: Table 3; Human Factor D 80 nM, substrate Z-L-Lys-SBzl; read-out: IC50 (Stars)

**Q.** Which IC50 does the source give for `COc1ncc(-c2ccc3c(c2)c(C(C)=O)nn3CC(=O)N2[C@H](C(=O)Nc3cncc(Br)n3)C[C@@]3(C)C[C@@H]23)cn1` [Compound 486] here?
**A.** The IC50 was under 1 µM.

**Q.** `COc1cc(Br)nc(NC(=O)[C@@H]2C[C@H]3C[C@H]3N2C(=O)Cn2nc(C(C)=O)c3cc(-c4cnc(OC)nc4)ccc32)c1` [Compound 433, (1R,3S,5R)-2-(2-(3-Acetyl-5-(2-methoxypyrimidin-5-yl)-1H-indazol-1-yl)acetyl)-N-(6-bromo-4-methoxypyridin-2-yl)-2-azabicyclo[3.1.0]hexane-3-carboxamide] was tested. Which IC50 did it give?
**A.** The IC50 was under 1 µM.

**Q.** Which IC50 does the source give for `CC(=O)c1cn(CC(=O)N2CC[C@H]2C(=O)Nc2cccc(C)n2)c2ccc(-c3cnc(C)nc3)cc12` [Compound 481, (S)-1-(2-(3-a=Acetyl-5-(2-methylpyrimidin-5-yl)-1H-indol-1-yl)acetyl)-N-(6-methylpyridin-2-yl)azetidine-2-carboxamide] here?
**A.** Its IC50 is over 10 µM.

**Q.** With `CC(=O)c1nn(CC(=O)N2C[C@H](F)C[C@H]2C(=O)Nc2cccc(Br)n2)c2ccc(-c3cnc(CN)nc3)cc12` [Compound 404, (2S,4R)-1-(2-(3-Acetyl-5-(2-(aminomethyl)pyrimidin-5-yl)-1H-indazol-1-yl)acetyl)-N-(6-bromopyridin-2-yl)-4-fluoropyrrolidine-2-carboxamide hydrochloride] as the compound, how does the IC50 read?
**A.** The IC50 was under 1 µM.

**Q.** For `CC(=O)c1nn(CC(=O)N2C[C@H](F)C[C@H]2C(=O)Nc2cc(Cl)cc(Br)n2)c2ccc(-c3cnc(C)nc3)cc12` [Compound 359, (2S,4R)-1-(2-(3-Acetyl-5-(2-methylpyrimidin-5-yl)-1H-indazol-1-yl)acetyl)-N-(6-bromo-4-chloropyridin-2-yl)-4-fluoropyrrolidine-2-carboxamide], which IC50 is on record?
**A.** The IC50 was under 1 µM.

**Q.** For `Cc1ncc(-c2ccc3c(c2)c(C(C)F)nn3CC(=O)N2C[C@H](F)C[C@H]2C(=O)Nc2cccc(Br)n2)cn1` (stereo partly drawn) [Compound 456, (2S,4R)—N-(6-Bromopyridin-2-yl)-4-fluoro-1-(2-(3-(1-fluoroethyl)-5-(2-methylpyrimidin-5-yl)-1H-indazol-1-yl)acetyl)pyrrolidine-2-carboxamide], which IC50 is on record?
**A.** The IC50 was under 1 µM.
